Experimental data: patent publication US11673876B2, “Substituted aminobenzyl heteroaryl compounds as EGFR and/or PI3K inhibitors” (Mekanistic Therapeutics LLC, priority 2020, dated 2023)
≈ marks a conversion by molar mass, not a printed value. Like-named read-outs stand apart in the source and are kept apart here.

How the values were obtained:
[1] = Metabolic stability in human liver microsomes; type: in vitro ADME
Description: Working solution: 5 μL of compound and control stock solution (10 mM in dimethyl sulfoxide (DMSO)) were diluted with 495 μL of acetonitrile (ACN) (intermediate solution concentration: 100 μM, 99% ACN)
NADPH Cofactor Preparation: NADPH powder: β-Nicotinamide adenine dinucleotide phosphate reduced form, tetrasodium salt; NADPH·4Na. The appropriate amount of NADPH powder was weighed and diluted into a 10 mM MgCl2 solution (working solution concentration: 10 unit/mL; final concentration in reaction system: 1 unit/mL)
Liver Microsomes Preparation: The appropriate concentrations of microsome working solutions were prepared in 100 mM potassium phosphate buffer. Cold (4° C.) acetonitrile (ACN) containing 200 ng/mL tolbutamide and 200 ng/mL labetalol as internal standards (1S) was used as the stop solution
Assay Procedure: Pre-warm empty ‘Incubation’ plates T60 and NCF60 for 10 minutes. Dilute liver microsomes to 0.56 mg/mL in 100 mM phosphate buffer. Transfer 445 μL microsome working solutions (0.56 mg/mL) into pre-warmed ‘Incubation’ plates T60 and NCF60, Then pre-incubate ‘Incubation’ plates T60 and NCF60 for 10 min at 37° C. with constant shaking. Transfer 54 μL liver microsomes to blank plate, then add 6 μL NAPDH cofactor to blank plate, and then add 180 μL quenching solution to blank plate. Add 5 μL compound working solution (100 μM) into ‘incubation’ plates (T60 and NCF60) containing microsomes and mix 3 times thoroughly.
For the NCF60 plate, add 50 μL of buffer and mix 3 times thoroughly. Start timing; plate will be incubated at 37° C. for 60 min while shaking. In ‘Quenching’ plate T0, add 180 μL quenching solution and 6 μL NAPDH cofactor. Ensure the plate is chilled to prevent evaporation. For the T60 plate, mix 3 times thoroughly, and immediately remove 54 μL mixture for the 0-min time point to ‘Quenching’ plate. Then add 44 μL NAPDH cofactor to incubation plate (T60). Start timing; plate will be incubated at 37° C. for 60 min while shaking. At 5, 10, 20, 30, and 60 min, add 180 μL quenching solution to ‘Quenching’ plates, mix once, and serially transfer 60 μL sample from T60 plate per time point to ‘Quenching’ plates. For NCF60: mix once, and transfer 60 μL sample from the NCF60 incubation to ‘Quenching’ plate containing quenching solution at the 60-min time point. All sampling plates are shaken for 10 min, then centrifuged at 4000 rpm for 20 minutes at 4° C. Transfer 80 μL supernatant into 240 μL HPLC water, and mix by plate shaker for 10 min. Each bioanalysis plate was sealed and shaken for 10 minutes prior to LC-MS/MS analysis.
The equation of first order kinetics was used to calculate T½ and CLint(mic) (μL/min/mg). Equation of first order kinetics: […]
The biological stability of the compounds of the disclosure can be measured by determining its ½ life in the presence microsomes. Presented in Table 5, is the ½ life of selected compounds of the disclosure in the presence of human liver microsomes (HLM) or mouse liver microsomes (MLM) as described above. In Table 5, ½ life is presented as “++++” (value is greater than 60 minutes), “+++” (value is greater than 30 minutes and less than or equal to 60 minutes), “++” (value is greater than 15 minutes and less than or equal to 30 minutes) and “+” (value is 15 minutes or less).

[2] = Solubility determination (PBS 7.4, SIF, SGF); type: physicochemical; details: for solubility at 2 h: kinetic from dmso stock
Description: Preparation of stock solutions: The stock solutions of test compounds and control compound diclofenac were prepared in DMSO at the concentrations of 10 mM.
Simulated Gastric Fluid (SGF): An aqueous mixture including hydrochloric acid, sodium chloride, and pepsin (pH=1.2).
Simulated Intestinal Fluid (SIF): Prepared by dissolving 6.8 g of KH2PO4 into about 500 mL ultrapure water and adjust the solution to a pH 6.8 with 0.1 M NaOH. 10 g trypsin is then dissolved into ultrapure water. The two solutions are mixed well and diluted with ultrapure water to a final volume of 1000 mL.
485 μL of (SIF, SGF, PBS 7.4, FESSIF, or FESSGF) was added into each vial of the cap-less Solubility Sample plate. The assay was performed in duplicate. Add one stir stick to each vial and seal using a molded PTFE/Silicone plug. […] After completion of the 2 hours, plugs were removed and the stir sticks were removed using a big magnet, the samples from the Solubility Sample plate were transferred into the filter plate. Using the Vacuum Manifold, all the samples were filtered. Aliquot of 5 μL and 5 μL DMSO were taken from the filtrate followed by addition of 490 μL of a mixture of H2O and acetonitrile containing internal standard (1:1). A certain proportion of ultrapure water was used to dilute the diluent according to the peak shape. The dilution factor was changed according to the solubility values and the LC-MS signal response.
Preparation of 300 μM standards (STD): From the 10 mM DMSO STD plate, 6 μL was transferred into the remaining empty plate, and then 194 μL of DMSO was added to that plate to have a STD concentration of 300 μM. From the 300 μM DMSO STD plate, 5 μL DMSO STD and 5 μL SIF was transferred into the remaining empty plate, and then 490 μL of a mixture of H2O and acetonitrile containing internal standard (1:1) was added to that plate to have a final STD concentration of 3 μM. A certain proportion of ultrapure water was used to dilute the diluent according to the peak shape. The concentrations of the standard samples were changed according to the LC-MS signal response.
Procedure for sample analysis: The plate was placed into the well plate autosampler. The samples were evaluated by LC-MS/MS analysis.
Data analysis: All calculations were carried out using Microsoft Excel. The filtrate was analyzed and quantified against a standard of known concentration using LC coupled with mass spectral peak identification and quantitation. Solubility values of the test compound and control compound were calculated as follows: […]
Any value of the compounds that was not within the specified limits was rejected and the experiment was repeated.

[3] = simulated intestinal fluid (SIF), simulated intestinal fluid pH 6.8, 25° C., 2 hours, read-out: Solubility SIF
[4] = aqueous buffer, PBS pH 7.4, 25° C., 2 hours, read-out: Solubility pH 7.4 PBS buffer
[5] = simulated gastric fluid (SGF), simulated gastric fluid pH 1.2, 25° C., 2 hours, read-out: Solubility SGF

## CC(Nc1c(C#N)cnc2ccc(-c3cnc4[nH]ncc4c3)cc12)c1ccccc1 (centres unmarked) [Compound 54, 4-(1-phenylethylamino)-6-(1H-pyrazolo[3,4-b]pyridin-5-yl)quinoline-3-carbonitrile]
[1]
  ½ life minutes (HLM): +++ (value is greater than 30 minutes and less than or equal to 60 minutes)
[2]; [3]
  solubility at 2 h: ≤ 20 µM

## C[C@@H](Nc1c(C#N)cnc2ccc(-c3cnc(N)nc3)cc12)c1ccccc1 [Compound 53R, (R)-6-(2-aminopyrimidin-5-yl)-4-((1-phenylethyl)amino)quinoline-3-carbonitrile]
[1]
  ½ life minutes (HLM): +++ (value is greater than 30 minutes and less than or equal to 60 minutes)
[2]; [3]
  solubility at 2 h: 20 to 100 µM (≈ 7.33 to 36.6 µg/mL)

## CS(=O)(=O)Nc1cc(-c2ccc3ncnc(Nc4ccc(F)c(Cl)c4)c3c2)cnc1Cl [Comparative Compound 2, reference compound]
[1]
  ½ life minutes (HLM): ++++ (value is greater than 60 minutes)
[2]; [4]
  solubility at 2 h: ≤ 20 µM
[2]; [5]
  solubility at 2 h: > 200 µM
[2]; [3]
  solubility at 2 h: ≤ 20 µM

## CC(Nc1c(C#N)cnc2ccc(-c3cnc(N)nc3)cc12)c1ccccc1 (centres unmarked) [Compound 53, 6-(2-aminopyrimidin-5-yl)-4-(1-phenylethylamino) quinoline-3-carbonitrile]
[1]
  ½ life minutes (HLM): ++++ (value is greater than 60 minutes)
[2]; [3]
  solubility at 2 h: 20 to 100 µM (≈ 7.33 to 36.6 µg/mL)

## C[C@H](Nc1ncnc2ccc(-c3cnc(Cl)c(NS(C)(=O)=O)c3)cc12)c1ccccc1 [Compound 2S, N-(2-chloro-5-(4-((1S-phenylethyl)amino)quinazolin-6-yl)pyridin-3-yl)methanesulfonamide]
[1]
  ½ life minutes (HLM): ++++ (value is greater than 60 minutes)
[2]; simulated intestinal fluid
  improvement in solubility compared to Comparative Compounds 1-3: at least 5 times
[2]; [3]
  solubility at 2 h: 100 to 200 µM (≈ 45.4 to 90.8 µg/mL)

## CS(=O)(=O)Nc1cncc(-c2ccc3ncnc(NCc4ccccc4)c3c2)c1 [Comparative Compound 3, reference compound]
[1]
  ½ life minutes (HLM): ++++ (value is greater than 60 minutes)
[2]; simulated intestinal fluid pH 6.8, 25° C., 2 hours
  Solubility SIF: * (value is 20 μM or less)

## CS(=O)(=O)Nc1cc(-c2ccc3ncnc(NCc4ccccc4)c3c2)cnc1Cl [Comparative Compound 1, N-[5-[4-(benzylamino)quinazolin-6-yl]-2-chloro-3-pyridyl]methanesulfonamide, reference compound]
[1]
  ½ life minutes (HLM): ++++ (value is greater than 60 minutes)
[2]; [4]
  solubility at 2 h: ≤ 20 µM
[2]; [5]
  solubility at 2 h: > 200 µM
[2]; [3]
  solubility at 2 h: ≤ 20 µM

## C[C@@H](Nc1ncnc2ccc(-c3cnc(Cl)c(NS(C)(=O)=O)c3)cc12)c1ccccc1 [Compound 2R, N-(2-chloro-5-(4-((1R-phenylethyl)amino)quinazolin-6-yl)pyridin-3-yl)methanesulfonamide]
[1]
  ½ life minutes (HLM): ++++ (value is greater than 60 minutes)
[2]; PBS buffer
  improvement in solubility compared to Comparative Compounds 1-3: same improvement in solubility
[2]; [4]
  solubility at 2 h: 100 to 200 µM (≈ 45.4 to 90.8 µg/mL)
[2]; [5]
  solubility at 2 h: > 200 µM
[2]; simulated intestinal fluid
  improvement in solubility compared to Comparative Compounds 1-3: at least 5 times
[2]; [3]
  solubility at 2 h: 100 to 200 µM (≈ 45.4 to 90.8 µg/mL)

## C[C@@H](Nc1ncnc2ccc(-c3cnc(Cl)c(NS(C)(=O)=O)c3)cc12)c1ccc(F)cc1 [Compound 111R, N-(2-chloro-5-(4-((1R-(4-fluorophenyl)ethyl)amino)quinazolin-6-yl)pyridin-3-yl)methanesulfonamide]
[1]
  ½ life minutes (HLM): ++++ (value is greater than 60 minutes)
[2]; [4]
  solubility at 2 h: 20 to 100 µM (≈ 9.44 to 47.2 µg/mL)
[2]; [5]
  solubility at 2 h: > 200 µM
[2]; [3]
  solubility at 2 h: 20 to 100 µM (≈ 9.44 to 47.2 µg/mL)
